# In ChEMBL document CHEMBL1201862, “PubChem BioAssay data set” (2004):
# Calls of active or inactive are those of the source.
# Assays:
# [1] = molecular target: Paired box protein Pax-8 (Homo sapiens, UniProt Q06710); experiment: inhibitors of PAX8-driven TPO luciferase reporter, dose response, RMG-I cells, cherry-pick (AID 687027); format: functional, cell-based;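 note: luciferase reporter driven by Pax8 target thyroperoxidase promoter measured by SteadyGlo luminescence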
# [2] = molecular target: Cytochrome P450 2C9 (Homo sapiens, UniProt P11712)
# Sequence of Cytochrome P450 2C9 (P11712 whole entry): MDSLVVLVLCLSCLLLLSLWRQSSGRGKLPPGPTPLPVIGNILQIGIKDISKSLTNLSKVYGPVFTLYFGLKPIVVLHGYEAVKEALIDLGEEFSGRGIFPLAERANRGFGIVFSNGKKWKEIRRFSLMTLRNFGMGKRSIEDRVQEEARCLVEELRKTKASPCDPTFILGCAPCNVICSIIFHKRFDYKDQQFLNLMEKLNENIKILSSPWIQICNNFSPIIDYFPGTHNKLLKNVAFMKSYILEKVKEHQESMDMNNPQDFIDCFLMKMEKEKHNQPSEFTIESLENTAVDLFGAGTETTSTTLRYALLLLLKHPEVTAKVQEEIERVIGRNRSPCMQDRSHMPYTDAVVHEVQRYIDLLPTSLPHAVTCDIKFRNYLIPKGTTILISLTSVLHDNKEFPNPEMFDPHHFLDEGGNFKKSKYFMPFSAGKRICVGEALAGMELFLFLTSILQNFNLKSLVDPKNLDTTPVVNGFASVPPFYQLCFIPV
# [3] = molecular target: FAD-linked sulfhydryl oxidase ALR (Homo sapiens, UniProt P55789); experiment: inhibitors of human ALR sulfhydryl oxidase, dose response, biochemical, H2O2 detection, luminescence, cherry-pick (AID 493248)
# Sequence of FAD-linked sulfhydryl oxidase ALR (P55789 whole entry): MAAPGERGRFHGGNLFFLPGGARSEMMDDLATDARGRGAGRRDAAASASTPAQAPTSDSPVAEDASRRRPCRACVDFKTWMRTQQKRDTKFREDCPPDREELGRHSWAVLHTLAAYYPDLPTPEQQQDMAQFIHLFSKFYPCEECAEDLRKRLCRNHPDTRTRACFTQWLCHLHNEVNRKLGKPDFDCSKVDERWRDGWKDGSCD
# [4] = system: Streptococcus; experiment: Group A Streptococcus viability loss, dose response, counter-screen for streptokinase expression inhibitor project, luminescence, BacTiterGlo (AID 1915); format: functional, organism-based;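 note: potency for reduction of bacterial viability or growth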
# [5] = system: Streptococcus sp. 'group A'; experiment: growth inhibition of control SK(-) GAS strain, dose response, counter-screen for streptokinase expression inhibitor project, luminescence, kanamycin, BacTiterGlo, confirmation (AID 1900); format: functional, organism-based
# [6] = molecular target: T1, Streptokinase A (Streptococcus pyogenes serotype M1, UniProt P10520); experiment: S. pyogenes streptokinase expression inhibitors, potency, dose response, plasminogen activation absorbance, OD405 (AID 1914); format: functional, Streptococcus pyogenes M1 GAS;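 note: secreted streptokinase activity via plasminogen activation per viability signal from cell pellet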
# T1 sequence (P10520 whole entry): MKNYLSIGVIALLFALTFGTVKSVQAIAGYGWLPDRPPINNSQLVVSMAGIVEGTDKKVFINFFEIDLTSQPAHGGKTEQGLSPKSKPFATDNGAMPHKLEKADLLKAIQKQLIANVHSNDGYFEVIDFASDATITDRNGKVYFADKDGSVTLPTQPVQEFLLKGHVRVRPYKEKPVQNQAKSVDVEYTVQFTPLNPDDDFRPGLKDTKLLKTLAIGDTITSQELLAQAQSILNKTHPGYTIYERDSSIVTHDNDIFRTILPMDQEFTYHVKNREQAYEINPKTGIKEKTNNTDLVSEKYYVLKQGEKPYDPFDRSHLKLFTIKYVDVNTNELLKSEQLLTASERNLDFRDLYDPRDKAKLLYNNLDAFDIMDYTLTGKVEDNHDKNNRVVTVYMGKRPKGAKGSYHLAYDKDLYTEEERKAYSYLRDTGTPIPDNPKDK
# [7] = molecular target: Cytochrome P450 2C19 (Homo sapiens, UniProt P33261); experiment: Cytochrome panel assay with activity outcomes. Panel member name: p450-cyp2c19 Compounds with AC50 equal or less than 10 uM are considered active; format: functional
# Sequence of Cytochrome P450 2C19 (P33261 whole entry): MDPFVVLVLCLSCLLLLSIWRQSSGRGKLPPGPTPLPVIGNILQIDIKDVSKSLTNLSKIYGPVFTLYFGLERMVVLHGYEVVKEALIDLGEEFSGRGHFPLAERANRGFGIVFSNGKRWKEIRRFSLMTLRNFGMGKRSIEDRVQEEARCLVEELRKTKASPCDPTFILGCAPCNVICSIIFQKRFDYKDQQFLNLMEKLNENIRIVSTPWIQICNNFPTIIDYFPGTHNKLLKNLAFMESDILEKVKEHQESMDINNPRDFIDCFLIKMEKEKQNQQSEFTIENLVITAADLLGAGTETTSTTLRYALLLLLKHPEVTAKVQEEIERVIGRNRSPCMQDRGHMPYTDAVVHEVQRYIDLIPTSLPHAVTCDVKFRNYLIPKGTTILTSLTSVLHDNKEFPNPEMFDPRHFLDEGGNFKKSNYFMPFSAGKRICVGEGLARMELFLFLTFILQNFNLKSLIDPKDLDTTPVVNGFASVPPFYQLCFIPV
# [8] = molecular target: Cytochrome P450 3A4 (Homo sapiens, UniProt P08684);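 note: CYP3A4 tested as one member of a cytochrome P450 panel screen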
# Sequence of Cytochrome P450 3A4 (P08684 whole entry): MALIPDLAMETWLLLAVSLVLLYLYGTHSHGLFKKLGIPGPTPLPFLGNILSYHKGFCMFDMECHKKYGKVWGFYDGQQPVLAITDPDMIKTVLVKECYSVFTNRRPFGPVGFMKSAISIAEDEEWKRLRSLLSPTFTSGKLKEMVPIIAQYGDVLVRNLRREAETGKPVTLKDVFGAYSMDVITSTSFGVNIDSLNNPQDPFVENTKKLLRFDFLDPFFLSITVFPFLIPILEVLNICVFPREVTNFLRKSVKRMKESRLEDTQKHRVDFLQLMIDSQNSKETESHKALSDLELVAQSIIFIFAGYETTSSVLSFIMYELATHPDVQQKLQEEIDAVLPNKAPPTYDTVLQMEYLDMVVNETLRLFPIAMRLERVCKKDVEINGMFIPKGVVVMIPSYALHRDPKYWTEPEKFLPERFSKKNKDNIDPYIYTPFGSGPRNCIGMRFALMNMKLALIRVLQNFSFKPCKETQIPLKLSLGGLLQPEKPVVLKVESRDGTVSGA
# [9] = molecular target: T2, Corticotropin-releasing factor receptor 2/Corticotropin-releasing factor-binding protein (Homo sapiens, UniProt P24387+Q13324); experiment: Dose Response confirmation of uHTS hits for small molecule antagonists of the CRF-binding protein and CRF-R2 receptor complex.; format: functional; settings: read-out: IC50_Mean
# T2 sequence (Q13324 whole entry): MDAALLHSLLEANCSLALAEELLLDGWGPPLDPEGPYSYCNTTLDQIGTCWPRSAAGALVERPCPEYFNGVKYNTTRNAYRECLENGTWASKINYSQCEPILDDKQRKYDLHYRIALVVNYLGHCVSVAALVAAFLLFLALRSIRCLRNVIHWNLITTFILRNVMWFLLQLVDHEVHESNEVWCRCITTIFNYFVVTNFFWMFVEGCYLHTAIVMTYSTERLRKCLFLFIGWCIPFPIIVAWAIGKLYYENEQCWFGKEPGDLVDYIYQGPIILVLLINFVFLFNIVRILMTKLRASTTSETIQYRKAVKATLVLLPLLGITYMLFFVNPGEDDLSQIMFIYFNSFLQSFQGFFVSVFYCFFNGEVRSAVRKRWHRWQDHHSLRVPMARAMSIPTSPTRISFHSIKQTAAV
# T2 sequence (P24387 whole entry): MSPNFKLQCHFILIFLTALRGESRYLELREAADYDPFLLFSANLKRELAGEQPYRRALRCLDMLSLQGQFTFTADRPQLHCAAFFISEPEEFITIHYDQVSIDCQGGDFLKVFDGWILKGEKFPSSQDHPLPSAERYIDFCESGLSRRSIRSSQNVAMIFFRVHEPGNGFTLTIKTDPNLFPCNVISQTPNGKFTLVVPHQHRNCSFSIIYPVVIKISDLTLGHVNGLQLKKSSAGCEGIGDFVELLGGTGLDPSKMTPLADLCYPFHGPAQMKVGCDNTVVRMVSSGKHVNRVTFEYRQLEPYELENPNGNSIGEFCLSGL
# [10] = molecular target: T2, Corticotropin-releasing factor receptor 2/Corticotropin-releasing factor-binding protein; experiment: activators of CRF receptor 2 with binding protein – uHTS hits, confirmation (AID 602473); format: functional; settings: read-out: EC50_Mean
# [11] = molecular target: Cytochrome P450 2D6 (Homo sapiens, UniProt P10635);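 note: CYP2D6 member of a cytochrome P450 panel assay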
# Sequence of Cytochrome P450 2D6 (P10635 whole entry): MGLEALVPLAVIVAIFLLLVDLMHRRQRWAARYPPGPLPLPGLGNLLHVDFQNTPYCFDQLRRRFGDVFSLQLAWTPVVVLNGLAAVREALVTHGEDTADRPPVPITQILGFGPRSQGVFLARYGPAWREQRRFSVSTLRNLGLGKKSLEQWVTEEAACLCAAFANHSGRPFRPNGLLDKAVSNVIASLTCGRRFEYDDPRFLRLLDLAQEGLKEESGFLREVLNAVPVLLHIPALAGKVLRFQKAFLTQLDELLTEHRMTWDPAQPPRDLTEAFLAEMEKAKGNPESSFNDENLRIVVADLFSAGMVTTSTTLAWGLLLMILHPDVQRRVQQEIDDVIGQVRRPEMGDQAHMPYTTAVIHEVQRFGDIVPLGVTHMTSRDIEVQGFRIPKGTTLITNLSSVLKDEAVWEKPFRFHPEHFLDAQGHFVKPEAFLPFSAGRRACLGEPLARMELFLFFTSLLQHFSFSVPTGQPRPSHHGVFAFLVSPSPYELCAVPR
# [12] = molecular target: T3, Cytochrome P450 1A2 (Homo sapiens, UniProt P05177);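 note: PubChem cytochrome P450 panel assay, CYP1A2 panel member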
# T3 sequence (P05177 whole entry): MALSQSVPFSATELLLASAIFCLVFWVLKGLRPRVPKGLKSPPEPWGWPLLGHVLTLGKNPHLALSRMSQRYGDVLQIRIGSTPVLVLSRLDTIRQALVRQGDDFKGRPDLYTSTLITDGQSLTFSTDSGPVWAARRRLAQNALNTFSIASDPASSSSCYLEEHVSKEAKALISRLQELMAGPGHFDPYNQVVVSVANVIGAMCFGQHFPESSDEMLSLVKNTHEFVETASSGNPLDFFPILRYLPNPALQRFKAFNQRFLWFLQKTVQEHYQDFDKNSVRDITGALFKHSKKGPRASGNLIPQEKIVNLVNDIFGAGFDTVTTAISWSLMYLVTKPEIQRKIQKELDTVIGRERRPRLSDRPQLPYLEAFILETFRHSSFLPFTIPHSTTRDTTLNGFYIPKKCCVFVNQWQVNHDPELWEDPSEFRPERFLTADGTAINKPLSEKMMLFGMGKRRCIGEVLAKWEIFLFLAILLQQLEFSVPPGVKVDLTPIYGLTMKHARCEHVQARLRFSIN
# Sequence of Paired box protein Pax-8 (Q06710 whole entry): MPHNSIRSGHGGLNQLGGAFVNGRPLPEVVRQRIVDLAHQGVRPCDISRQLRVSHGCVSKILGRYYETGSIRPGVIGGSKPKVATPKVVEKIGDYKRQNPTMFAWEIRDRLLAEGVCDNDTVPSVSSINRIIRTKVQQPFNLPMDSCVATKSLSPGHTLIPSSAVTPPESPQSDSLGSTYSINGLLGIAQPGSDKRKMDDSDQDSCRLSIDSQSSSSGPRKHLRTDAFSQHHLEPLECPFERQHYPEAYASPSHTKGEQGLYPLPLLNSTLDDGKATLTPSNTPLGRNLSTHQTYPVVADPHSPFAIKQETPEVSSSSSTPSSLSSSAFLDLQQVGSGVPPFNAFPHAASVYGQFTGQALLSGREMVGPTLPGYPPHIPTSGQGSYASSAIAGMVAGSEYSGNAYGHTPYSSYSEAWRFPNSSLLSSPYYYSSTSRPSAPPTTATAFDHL
smiles,measurement,setting,value
C[C@@H]1CN([C@H](C)CO)C(=O)c2cc(NS(=O)(=O)c3ccc(Cl)cc3)ccc2O[C@@H](C)CCCCO[C@H]1CN(C)C(=O)C1CCCCC1,AC50,[1],15.8 µM (active)
CCCCOc1ccc(C(=O)N/C(=C\c2cccc([N+](=O)[O-])c2)C(=O)OCCC)cc1,AC50,[2],0.708 µM (inconclusive)
Cc1cccc(OCc2nnc(S)n2-c2ccccc2)c1,AC50,[3],1.6 µM (active)
CCCCC(NC(=O)CCc1c(C)c2cc3c4c(oc3c(C)c2oc1=O)CCCC4)C(=O)O (stereo not given),AC50,[3],7.78 µM (active)
Cc1cccc(C)c1OCC(=O)Nc1ccccc1N1CCCCC1,EC50,[4],12.5 µM (active)
same,EC50,[5],3.36 µM (active)
same,EC50,[6],4.15 µM (active)
Cc1nnc(O)c2c(NC(=O)CSc3nnnn3-c3ccccc3)oc(C)c12,EC50,[4],> 150 µM (not active)
same,EC50,[5],> 150 µM (not active)
same,EC50,[6],> 150 µM (not active)
Cc1nn(CC(O)CN2c3ccccc3Sc3ccccc32)c(C)c1Br (stereo not given),EC50,[4],21.4 µM (active)
same,EC50,[5],3.47 µM (active)
same,EC50,[6],8 µM (active)
COc1ccccc1CNC(=O)C1CC(=O)N(C2CCCC2)C1 (stereo not given),AC50,[2],0.0224 µM (inconclusive)
same,AC50,[7]; read-out: AC50,28.2 µM (inconclusive)
same,AC50,[8],22.4 µM (inconclusive)
Cc1ccc(CNC(=O)c2cc(-c3ccccc3C)n(CC3CC(c4cccc([N+](=O)[O-])c4)=NO3)n2)cc1 (stereo not given),IC50,[9],> 47.1 µM (inactive)
same,EC50,[10],> 53 µM (inactive)
C[N+](C)(C)CCC(=O)c1cccc2ccccc12,AC50,[2],12.6 µM (inconclusive)
same,AC50,[8],0.2 µM (inconclusive)
same,AC50,[11],10 µM (inconclusive)
Cc1cccc(-n2c(-c3ccoc3C)n[nH]c2=S)c1,AC50,[3],7.34 µM (active)
CN(C)c1ccc(/C=N/NC(=O)c2ccc3c(c2)OCO3)cc1,AC50,[3],4.72 µM (active)
CCOC(=O)C1=C(N)Oc2ccc3ccccc3c2C1c1ccc(O)cc1 (stereo not given),EC50,[4],> 150 µM (not active)
same,EC50,[5],8.94 µM (active)
same,EC50,[6],11.5 µM (active)
CC(Sc1nnnn1-c1ccccc1)C(=O)Nc1ccccc1-c1ccccc1 (stereo not given),IC50,[9],> 47.1 µM (inactive)
same,EC50,[10],> 53 µM (inactive)
Cc1ccc(-n2nnnc2SCC(=O)Nc2cccnc2Cl)cc1,IC50,[9],> 47.1 µM (inactive)
same,EC50,[10],> 53 µM (inactive)
CNc1ccc(C2(O)C(=O)c3ccccc3C2=O)cc1,AC50,[3],0.664 µM (active)
Cc1ccccc1NC(=O)C(=O)NC(C)CCc1ccccc1 (stereo not given),EC50,[4],> 150 µM (not active)
same,EC50,[5],> 150 µM (not active)
same,EC50,[6],> 150 µM (not active)
CNS(=O)(=O)c1cnccc1N1CCN(c2cccc(C)c2)CC1,AC50,[3],< 0.005 µM (active)
Sc1nnc(-c2ccccc2)c(-c2ccccc2)n1,AC50,[3],0.567 µM (active)
CC(NC(=O)CCCCCNC(=O)N1CCn2c1nc1ccccc12)c1ccccc1 (stereo not given),AC50,[3],4.51 µM (active)
COc1ccccc1-n1cnnc1SCC(=O)NCc1cccs1,IC50,[9],> 47.1 µM (inactive)
same,EC50,[10],> 53 µM (inactive)
CC(C)c1ccc(CNc2cc(N3CCCC3)ccc2[N+](=O)[O-])cc1,AC50,[2],2.24 µM (inconclusive)
COc1ccc(NC2CCCN(C(=O)c3cccc(C)n3)C2)cc1OC (stereo not given),IC50,[9],> 47.1 µM (inactive)
same,EC50,[10],> 53 µM (inactive)
CCN(CC)CCCNC(=O)C1CCC(=O)N(c2ccc(OC)cc2)C1c1ccc(F)cc1 (stereo not given),AC50,[2],39.8 µM (inconclusive)
same,AC50,[7],inconclusive
Oc1[nH]ncc1/C=N/c1ccc(Cl)cc1,IC50,[9],> 47.1 µM (inactive)
same,EC50,[10],> 53 µM (inactive)
CC(C)(C)NC(=O)C(=O)NNC(=O)c1ccccc1,AC50,[2],1.78 µM (inconclusive)
same,AC50,[7],inconclusive
Oc1cccc2ccc(/C=C/c3c(F)cccc3Cl)nc12,EC50,[4],32.2 µM (active)
same,EC50,[5],0.589 µM (active)
same,EC50,[6],> 150 µM (not active)
COc1cc(NC(=O)c2ccccc2Cl)ccc1NC(=O)c1ccco1,AC50,[12],17.8 µM (inconclusive)
same,AC50,[2],1.12 µM (inconclusive)
same,AC50,[11],22.4 µM (inconclusive)
N#Cc1ccc(CN2CC[C@@]3(CCCN(C(=O)c4ccncc4)C3)C2)cc1,AC50,[12],39.8 µM (inconclusive)
same,AC50,[2],31.6 µM (inconclusive)
same,AC50,[11],20 µM (inconclusive)
CC(C)CN(C(=O)COc1ccc(-c2nnco2)cc1)C1CCS(=O)(=O)C1 (stereo not given),EC50,[4],> 150 µM (not active)
same,EC50,[5],> 150 µM (not active)
same,EC50,[6],> 150 µM (not active)
CC(C)C(=O)Nc1ccc(C(=O)NNC(=O)C(c2ccccc2)c2ccccc2)cc1,AC50,[2],5.01 µM (inconclusive)
same,AC50,[8],4.47 µM (inconclusive)
CCN(CC)C(=O)c1csc(Nc2ccc(C)cc2)n1,AC50,[3],5.19 µM (active)
O=C(Cc1ccccc1)NNc1c2ccccc2nc2ccccc12,AC50,[3],2.43 µM (active)
COC(=O)c1cnn(C(=O)c2ccccc2Br)c1N,AC50,[2],22.4 µM (inconclusive)
CSc1nc2n(n1)C(c1cccc(F)c1)C(C(=O)Nc1ccc(C)cc1C)=C(C)N2 (stereo not given),AC50,[2],3.98 µM (inconclusive)
same,AC50,[8],0.708 µM (inconclusive)
COc1ccc(Cc2nnc(NC(=O)c3ccc(Cl)c([N+](=O)[O-])c3)s2)cc1,AC50,[2],1.41 µM (inconclusive)
same,AC50,[8],0.631 µM (inconclusive)
CC/C(=N\NC(=S)Nc1cc(C)ccc1C)c1ccc(OC(F)F)cc1,EC50,[4],11.8 µM (active)
same,EC50,[5],6.27 µM (active)
same,EC50,[6],> 150 µM (not active)
CCOC(=O)c1cnn(-c2nc(-c3cccc(F)c3)cs2)c1C(F)(F)F,EC50,[4],17.6 µM (active)
same,EC50,[5],9.99 µM (active)
same,EC50,[6],20.8 µM (active)
CCC1C(=O)N=C(SCC(=O)Nc2ccc(C(=O)OC)cc2)NC1=O (stereo not given),AC50,[2],31.6 µM (inconclusive)
Cc1ccccc1N=Nc1c(N)n[nH]c1N,AC50,[3],5.72 µM (active)
CCOc1cc(CNc2ccc(OC)cc2)cc(Br)c1OCC(=O)NC(C)(C)C,AC50,[2],7.08 µM (inconclusive)
Cc1ccc(Nc2nc(CSc3n[nH]c(N)n3)cs2)cc1,AC50,[3],< 0.005 µM (active)
COc1ccc(CC(=O)N/N=C(\C)CC(=O)Nc2ccc(N(C)C)cc2)cc1,AC50,[3],2.04 µM (active)
CCC1=C(C[C@H]2NCCc3cc(OC)c(OC)cc32)C[C@H]2c3ccccc3CCN2C1,AC50,[2],3.16 µM (inconclusive)
same,AC50,[8],3.16 µM (inconclusive)
N#Cc1cccc(-c2ccc3ncnc(NCc4cccs4)c3c2)c1,AC50,[2],0.501 µM (inconclusive)
same,AC50,[11],12.6 µM (inconclusive)
CN1c2ccc([N+](=O)[O-])cc2C(C)(C)C12C=Cc1cc(C(=O)O)ccc1O2 (stereo not given),AC50,[3],1.47 µM (active)
